Data taken from patent publication US7767674B2, “Kinase inhibitors” (Eli Lilly and Company, priority 2004, dated 2010).

Tests used:
[1] = biological target: p38 kinase enzyme (Homo sapiens, UniProt Q16539); assay: Inhibition of p38 kinase (33P-ATP, EGF peptide 661-681 substrate); format: biochemical; settings: 33P-ATP assay, 40 min at 30° C.
Method: The kinase buffer solution is prepared by combining 2.5 mL 1M Tris-HCl (pH 7.5), 0.1 mL 1M dithiothreitol, 1.0 mL 1M magnesium chloride, and 300 μL 1% Triton X-100 and diluting to 100 mL with water. 84 mL of this kinase buffer solution is combined with 16 mL DMSO to prepare the 16% DMSO solution.
The 200 μM ATP solution is prepared by adding 102.6 μL 10 mM aqueous ATP, 25 μL ^33P-ATP, and 163.5 μL of 4 mM aqueous Epidermal Growth Factor Peptide 661-681 (Biomol, Catalog #P-121) in 5 mL kinase buffer solution.
The p38 kinase enzyme solution is prepared by dissolving 9.5 μL concentrated enzyme solution (250 ng p38 enzyme/μL kinase buffer solution) in 1536 μL kinase buffer solution.
An 80 μM solution of each test compound and control compound are prepared by dissolving 2 μL of a 10 mM stock solution of the respective compounds in dimethylsulfoxide in 248 μL of the 16% DMSO solution in a Costar 96-well microtiter plate. The plate is placed onto the Tecan Genesis automated liquid handler for 1:3 serial dilutions.
10 μL of serially diluted compound is placed with a Beckman Multimek 96-well automated liquid handler to the assay plate. 20 μL of 200 μM ATP solution is added with a Titertek Multidrop 8-channel liquid handler. 10 μL of p38 kinase enzyme solution is transferred to the assay plate using the Multimek. The mixture is allowed to react for 40 min at 30° C. and then the reaction is stopped by adding 60 μL of freshly prepared 5% glacial AcOH with Multidrop. 80 μL of this solution is transferred to an “MAPH” plate using the Multimek. The plates are allowed to set for 30 min at room temperature and then washed/aspirated on the Titertek MAP extractor with freshly prepared 0.5% glacial AcOH (1×300 μL, 2×200 μL). […] The plates are allowed to sit for 30 min and counted on a PE/Wallac Microbeta Trilux scintillation counter for ^33P-isotope.
All exemplified compounds are initially tested at 10 concentrations (20 μM-1 nM using 1:3 serial dilutions). […] IC50 values are calculated (IDBS ActivityBase software) for each compound using non-linear regression. […]

[2] = tested on: TNF-α production in mouse peritoneal macrophages; assay: Inhibition of TNF-α in vitro, LPS/interferon-γ stimulated mouse peritoneal macrophages, Luminex detection; format: cell-based; settings: Peritoneal macrophage, LPS 50 ng/mL + interferon-γ 10 U/mL, 18 hr, read-out: IC50, suppression of TNF-α in vitro
Method: 1 mL thioglycolate broth (5.0 g yeast extract, 15.0 g casitone or trypticase, 5.0 g dextrose, 2.5 g sodium chloride, 0.75 g L-cystine, 0.5 g sodium thioglycolate, 1.0 mg resazurin, and 0.75 g agar in 1.0 L distilled water) are injected into the peritoneal cavity of Balb/C female mice. At day 4 or 5 post-injection the mice are sacrificed and then injected i.p. with 4 mL RPMI-1640 medium (BioWhittaker) and the peritoneal macrophages are withdrawn by syringe. Mouse peritoneal microphages are counted with a hemocytometer and adjusted to 5×10^5 cells/well in 96-well plates in RPMI-1640 medium with 10% fetal bovine serum. 200 μL/well is plated in 96-well plates and the cells allowed to settle and adhere to the bottom of the well for at least 3 hr. The test compound or standard p38 kinase inhibitor is pre-treated using a series of 8 concentrations for 1 hr at 37° C. (20 μL/well). The cells are treated with a mixture of 50 ng/mL lipopolysaccharide (LPS) and 10 U/mL interferon-γ for 18 hr at 37° C. (20 μL/well). The conditioned media is harvested and assayed for TNF-α production using the Luminex procedure. […] Standards and samples are read on a Luminex machine. These intensity readings are then converted to picogram/milliliter units based on a 12-point standard curve created in duplicate using a four-parameter logistic regression method (Bio-Plex Manager 2.0, Bio-Rad), and the IC50 calculated.

[3] = tested on: TNF-α in synovial lavage fluid; assay: Effect on intra-articular LPS induced TNF-α, rat ankle synovial lavage fluid; format: in vivo; settings: oral, female Lewis rats, intra-articular LPS 10 μg one hour after compound, lavage after two hours, read-out: ED50, inhibition of TNF-α synthesis in synovial lavage fluid
Method: Intra-articular injection of LPS into rat ankles induces the synthesis of TNF-α, which can be measured in synovial lavage fluid. High levels of TNF-α are detectable within 2 hours. Since the joint is the site where arthritis develops, this model can rapidly determine whether an orally administered compound has an effect on an inflammatory response in the synovium.
Six female Lewis rats (150-200 g) are place in each treatment group. The animals are given vehicle (1% NaCarboxymethylcellulose-0.25% Tween 80) or test compound (1 mg/kg, 3 mg/kg, 10 mg/kg, and 30 mg/kg) orally. One hour later, 10 μl LPS (10 μg) is administered intra-articularly into the right ankle of each rat, while the left ankle receives 10 μL of saline. After two hours, each ankle is lavaged with 100 μL of saline. The lavage is collected and stored at −80° C.
TNF-α is measured with a commercially available ELISA kit (R&D, RTA00). Treatment with Example 100 produced a dose response inhibition of TNF-α synthesis, as measured in the synovial lavage fluid with ED50=30 mg/kg.

[4] = tested on: TNFa-levels in the plasma; assay: Inhibition of TNF in vivo, LPS-challenged mice, plasma TNFa by ELISA; settings: p.o., female Balb/c mice, LPS IP 400 ug/kg 1 hr after compound, plasma 1.5 hrs after LPS
Method: Compounds are administered p.o. (30, 10, 3 and 1 mg/kg) to female Balb/c mice (6 mice/dose). 1 hr following compound administration at 4 doses (P.O. at volume of 0.1 mL/mouse; vehicle: 1% NaCMC/0.25% Tween-80 in water); mice are given an IP-injection of LPS at 400 ug/kg. 1.5 hrs after LPS challenging, mice are anesthetized with isoflurane and blood is taken via cardiac puncture. TNFa-levels in the plasma are determined using ELISA kit from R&D Systems and dose response ED50 is determined.

Chain of p38 kinase enzyme (Q16539 whole entry): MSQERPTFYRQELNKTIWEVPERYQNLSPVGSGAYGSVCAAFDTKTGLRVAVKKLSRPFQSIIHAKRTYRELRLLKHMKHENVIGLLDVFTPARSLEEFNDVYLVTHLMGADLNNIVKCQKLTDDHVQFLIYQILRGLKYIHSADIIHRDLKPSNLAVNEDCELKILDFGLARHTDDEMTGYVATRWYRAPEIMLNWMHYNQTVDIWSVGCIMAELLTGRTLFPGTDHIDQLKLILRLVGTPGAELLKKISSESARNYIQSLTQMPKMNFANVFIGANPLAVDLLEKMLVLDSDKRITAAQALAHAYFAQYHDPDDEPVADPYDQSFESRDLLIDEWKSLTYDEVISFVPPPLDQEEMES

| SMILES | IC50 [1] [nM] | IC50 [2] [nM] | ED50 [3] [mg/kg] | TMED50, suppression of TNF in vivo [4] [mg/kg] |
| --- | --- | --- | --- | --- |
| Cn1nc(C(C)(C)C)cc1NC(=O)Nc1cc(F)cc(OC2CCN(C(=O)C(C)(C)C)CC2)c1 [Example 70, 1-(5-tert-Butyl-2-methyl-2H-pyrazol-3-yl)-3-{3-[1-(2,2-dimethyl-propionyl)-piperidin-4-yloxy]-5-fluoro-phenyl}-urea] | 19 |  |  |  |
| Cn1nc(C(C)(C)C)cc1NC(=O)Nc1ccc(CN2CCN(C(=O)c3c(F)cccc3F)CC2)cc1 [Example 100] | 10 | 11 | 30 | 2.4 |
| Cc1ccc(-n2nc(C(C)(C)C)cc2NC(=O)Nc2ccc(N3CCN(C(=O)C(C)(C)C)CC3)cc2)cc1 [Example 136] | 91 |  |  |  |
